Source: ChEMBL document CHEMBL1777684, “Synthesis and evaluation of antioxidant and antibacterial activities of new substituted bis(1,3,4-oxadiazoles), 3,5-bis(substituted) pyrazoles and isoxazoles” (Bioorg Med Chem Lett, 2011)
The source made the active and inactive calls. No cut-off for these calls is given here.

How the values were obtained:
[1] = Anti-lipid peroxidation activity ferric chloride-induced lipid peroxidation using egg yolk homogenate at 40 ug/ml by TBARS assay; assay type: physicochemical; details: tissue homogenate
[2] = tested on: Bacillus subtilis; assay: Antibacterial activity against Bacillus subtilis NCIM 2063 at 100 ug/ml after 24 hrs by agar disc diffusion method; assay type: functional; details: NCIM 2063, 24 h, read-out: IZ
[3] = tested on: Pseudomonas aeruginosa; assay: Antibacterial activity against Pseudomonas aeruginosa NCIM 5029 at 100 ug/ml after 24 hrs by agar disc diffusion method; assay type: functional; details: for zone of inhibition at 100 µg/mL: NCIM 5029, 24 h, read-out: IZ
[4] = tested on: Escherichia coli; assay: Antibacterial activity against Escherichia coli NCIM 2065 at 100 ug/ml after 24 hrs by agar disc diffusion method; assay type: functional; details: for zone of inhibition at 100 µg/mL: NCIM 2065, 24 h, read-out: IZ
[5] = tested on: Staphylococcus aureus; assay: Antibacterial activity against Staphylococcus aureus NCIM 2079 at 100 ug/ml after 24 hrs by agar disc diffusion method; assay type: functional; details: for zone of inhibition at 100 µg/mL: NCIM 2079, 24 h, read-out: IZ
[6] = tested on: Radical scavenging activity; assay: Antioxidant activity assessed as DPPH radical scavenging activity at 10 ug/ml by UV-visible spectrophotometry; assay type: functional

For `COc1cc(-c2nnc(Cc3nnc(-c4cc(OC)c(OC)c(OC)c4)o3)o2)cc(OC)c1OC`, the Activity [1] was 44.3%, the zone of inhibition at 100 µg/mL [2] was 3 mm and the “inhibition zone (IZ)” value [3] was “inactive”. For the same compound, the “inhibition zone (IZ)” value [4] was “inactive” and the zone of inhibition at 100 µg/mL [5] was 7 mm.

Work on `COc1ccc(/C=N/Nc2cc(N/N=C/c3ccc(OC)cc3)[nH]n2)cc1` yielded an Activity [1] of 46.3%, a zone of inhibition at 100 µg/mL [2] of 20 mm and a zone of inhibition at 100 µg/mL [3] of 19 mm. It also gave a zone of inhibition at 100 µg/mL [4] of 18 mm, a zone of inhibition at 100 µg/mL [5] of 28 mm and an Activity [6] of 44.3%.

With `CN(C)c1ccc(/C=N/Nc2cc(N/N=C/c3ccc(N(C)C)cc3)[nH]n2)cc1` the zone of inhibition at 100 µg/mL [2] was 10 mm, the zone of inhibition at 100 µg/mL [3] was 8 mm and the zone of inhibition at 100 µg/mL [4] was 9 mm. The zone of inhibition at 100 µg/mL [5] was 20 mm and the Activity [6] was 59.2%.

Compound `COc1ccc(/C=N/Nc2cc(N/N=C/c3ccc(OC)c(OC)c3)[nH]n2)cc1OC` has a zone of inhibition at 100 µg/mL [2] of 8 mm, a zone of inhibition at 100 µg/mL [3] of 6 mm and a zone of inhibition at 100 µg/mL [4] of 13 mm. For the same compound, the zone of inhibition at 100 µg/mL [5] was 10 mm and the Activity [6] was 47.1%.

Work on `c1ccc(-c2nnc(Cc3nnc(-c4ccccc4)o3)o2)cc1` yielded an Activity [1] of 33.4%, a zone of inhibition at 100 µg/mL [2] of 10 mm and a zone of inhibition at 100 µg/mL [3] of 13 mm. For the same compound, the zone of inhibition at 100 µg/mL [4] was 5 mm, the zone of inhibition at 100 µg/mL [5] was 7 mm and the Activity [6] was 41.3%.

With `Oc1ccc(-c2nnc(Cc3nnc(-c4ccc(O)cc4)o3)o2)cc1` the Activity [1] was 53.4%, the zone of inhibition at 100 µg/mL [2] was 2 mm and the zone of inhibition at 100 µg/mL [3] was 1 mm. The zone of inhibition at 100 µg/mL [4] was 1 mm, the zone of inhibition at 100 µg/mL [5] was 7 mm and the Activity [6] was 36%.

`O=C(O)c1cn(C2CC2)c2cc(N3CCNCC3)c(F)cc2c1=O` [CIPROFLOXACIN] gave a zone of inhibition at 100 µg/mL [2] of 18 mm, a zone of inhibition at 100 µg/mL [3] of 18 mm and a zone of inhibition at 100 µg/mL [5] of 29 mm.

`O=C1O[C@H]([C@@H](O)CO)C(O)=C1O` gave an Activity [6] of 93.2%.

For `COc1cc(/C=N/Nc2cc(N/N=C/c3cc(OC)c(OC)c(OC)c3)on2)cc(OC)c1OC`, the Activity [1] was 48.4%, the zone of inhibition at 100 µg/mL [2] was 10 mm and the zone of inhibition at 100 µg/mL [3] was 9 mm. For the same compound, the zone of inhibition at 100 µg/mL [4] was 11 mm, the zone of inhibition at 100 µg/mL [5] was 13 mm and the Activity [6] was 54%.

Compound `C(=N\Nc1cc(N/N=C/c2ccccc2)[nH]n1)/c1ccccc1` has an Activity [1] of 44%, a zone of inhibition at 100 µg/mL [2] of 9 mm and a zone of inhibition at 100 µg/mL [3] of 9 mm. The zone of inhibition at 100 µg/mL [4] was 4 mm, the zone of inhibition at 100 µg/mL [5] was 5 mm and the Activity [6] was 34.2%.

For `Clc1ccc(/C=N/Nc2cc(N/N=C/c3ccc(Cl)cc3)on2)cc1`, the Activity [1] was “Not Active”, the zone of inhibition at 100 µg/mL [2] was 8 mm and the zone of inhibition at 100 µg/mL [3] was 6 mm. For the same compound, the zone of inhibition at 100 µg/mL [4] was 8 mm, the zone of inhibition at 100 µg/mL [5] was 14 mm and the Activity [6] was 37.4%.

In the case of `Oc1ccc(/C=N/Nc2cc(N/N=C/c3ccc(O)cc3)[nH]n2)cc1`, the Activity [1] is reported as 58.6%, the zone of inhibition at 100 µg/mL [2] is reported as 7 mm and the zone of inhibition at 100 µg/mL [3] is reported as 18 mm. For the same compound, the zone of inhibition at 100 µg/mL [4] was 13 mm, the “inhibition zone (IZ)” value [5] was “inactive” and the Activity [6] was 83%.

With `Clc1ccc(-c2nnc(Cc3nnc(-c4ccc(Cl)cc4)o3)o2)cc1` the Activity [1] was 16.2%, the zone of inhibition at 100 µg/mL [2] was 6 mm and the “inhibition zone (IZ)” value [3] was “inactive”. The “inhibition zone (IZ)” value [4] was “inactive”, the zone of inhibition at 100 µg/mL [5] was 4 mm and the Activity [6] was 40%.

With `O=[N+]([O-])c1ccc(/C=N/Nc2cc(N/N=C/c3ccc([N+](=O)[O-])cc3)[nH]n2)cc1` the Activity [1] was “Not Active”, the zone of inhibition at 100 µg/mL [2] was 7 mm and the zone of inhibition at 100 µg/mL [3] was 8 mm. For the same compound, the zone of inhibition at 100 µg/mL [4] was 11 mm, the zone of inhibition at 100 µg/mL [5] was 9 mm and the Activity [6] was 74.2%.

Compound `COc1ccc(-c2nnc(Cc3nnc(-c4ccc(OC)c(OC)c4)o3)o2)cc1OC` has a zone of inhibition at 100 µg/mL [2] of 11 mm, a zone of inhibition at 100 µg/mL [3] of 9 mm and a zone of inhibition at 100 µg/mL [4] of 10 mm. For the same compound, the zone of inhibition at 100 µg/mL [5] was 10 mm and the Activity [6] was “inactive”.

`CN(C)c1ccc(-c2nnc(Cc3nnc(-c4ccc(N(C)C)cc4)o3)o2)cc1` gave an Activity [1] of 46.3%, a zone of inhibition at 100 µg/mL [2] of 12 mm and a zone of inhibition at 100 µg/mL [3] of 9 mm. For the same compound, the zone of inhibition at 100 µg/mL [4] was 10 mm, the zone of inhibition at 100 µg/mL [5] was 13 mm and the Activity [6] was 28%.

Compound `Oc1ccccc1-c1nnc(Cc2nnc(-c3ccccc3O)o2)o1` has an Activity [1] of 48.6%, a zone of inhibition at 100 µg/mL [2] of 13 mm and a zone of inhibition at 100 µg/mL [3] of 5 mm. For the same compound, the zone of inhibition at 100 µg/mL [4] was 8 mm, the zone of inhibition at 100 µg/mL [5] was 9 mm and the Activity [6] was 37%.

In the case of `CN(C)c1ccc(/C=N/Nc2cc(N/N=C/c3ccc(N(C)C)cc3)on2)cc1`, the Activity [1] is reported as 54.5%, the zone of inhibition at 100 µg/mL [2] is reported as 15 mm and the zone of inhibition at 100 µg/mL [3] is reported as 12 mm. It also gave a zone of inhibition at 100 µg/mL [4] of 10 mm, a zone of inhibition at 100 µg/mL [5] of 20 mm and an Activity [6] of 90.6%.

For VITAMIN E, the Activity [1] was 70%.

Work on `COc1ccc(-c2nnc(Cc3nnc(-c4ccc(OC)cc4)o3)o2)cc1` yielded an Activity [1] of 40.5%, a zone of inhibition at 100 µg/mL [2] of 8 mm and a zone of inhibition at 100 µg/mL [3] of 7 mm. The zone of inhibition at 100 µg/mL [4] was 6 mm, the zone of inhibition at 100 µg/mL [5] was 9 mm and the Activity [6] was “inactive”.

For `COc1cc(/C=N/Nc2cc(N/N=C/c3cc(OC)c(OC)c(OC)c3)[nH]n2)cc(OC)c1OC`, the zone of inhibition at 100 µg/mL [2] was 12 mm, the zone of inhibition at 100 µg/mL [3] was 9 mm and the “inhibition zone (IZ)” value [4] was “inactive”. The zone of inhibition at 100 µg/mL [5] was 17 mm and the Activity [6] was 52.4%.

Work on `Clc1ccc(/C=N/Nc2cc(N/N=C/c3ccc(Cl)cc3)[nH]n2)cc1` yielded a zone of inhibition at 100 µg/mL [2] of 6 mm, a zone of inhibition at 100 µg/mL [3] of 5 mm and a zone of inhibition at 100 µg/mL [4] of 4 mm. The zone of inhibition at 100 µg/mL [5] was 4 mm and the Activity [6] was 40%.
